Target: T1, human ENT1 (Homo sapiens, UniProt Q99808)
T1 sequence (Q99808 1-456): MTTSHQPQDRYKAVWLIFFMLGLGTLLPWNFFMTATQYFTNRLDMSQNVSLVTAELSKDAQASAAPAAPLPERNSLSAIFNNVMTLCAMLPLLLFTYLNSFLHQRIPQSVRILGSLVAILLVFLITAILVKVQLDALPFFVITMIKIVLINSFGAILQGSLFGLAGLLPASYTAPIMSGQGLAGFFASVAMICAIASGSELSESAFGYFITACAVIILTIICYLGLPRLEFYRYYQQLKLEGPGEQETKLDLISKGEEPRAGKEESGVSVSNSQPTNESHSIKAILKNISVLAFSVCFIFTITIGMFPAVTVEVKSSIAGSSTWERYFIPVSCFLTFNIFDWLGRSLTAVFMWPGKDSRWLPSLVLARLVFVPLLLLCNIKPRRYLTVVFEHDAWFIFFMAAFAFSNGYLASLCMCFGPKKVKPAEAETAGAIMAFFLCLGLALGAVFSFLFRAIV
Experiment: ENT1 binding assay (competition with Sahenta-DY647 on JAR cells)
Design: JAR cells expressing ENT1 were bought from ATCC; host or cells: JAR cells
Details: binned IC50
Method: Purpose. […] By measuring the fluorescence at the end of the assay we could assess the binding potency of the compounds of the present invention.
JAR cells were resuspended in the described buffer. Compounds of the present invention and Sahenta-DY647 were diluted 200× in the described buffer.
The total volume of the reaction was 100 μL (50 μL of cells, 25 μL of the compounds of the present invention and 25 μL of Sahenta-DY647) in a 96 well plate, U-bottom (Greiner®, #650-180). The plates were washed 2× by centrifugation (4 min, 400 rcf at 4° C.) in the same buffer.

| IC50 [nM] | SMILES |
| --- | --- |
| < 100 | COCCN(CCOC)c1nc(N2CCN(c3nccs3)CC2)c2nc(N(CCOC)CCOC)nc(N3CCN(c4nccs4)CC3)c2n1 [Compound 1, N2,N2,N6,N6-tetrakis(2-methoxyethyl)-4,8-bis(4-(thiazol-2-yl)piperazin-1-yl)pyrimido[5,4-d]pyrimidine-2,6-diamine] |
| 100 to 500 | CCOC(=O)C1CCN(c2nc(N(CCOC)CCOC)nc3c(N4CCC(C(=O)OCC)CC4)nc(N(CCOC)CCOC)nc23)CC1 [Compound 3, diethyl 1,1′-(2,6-bis(bis(2-methoxyethyl)amino)pyrimido[5,4-d]pyrimidine-4,8-diyl)bis(piperidine-4-carboxylate)] |
| 100 to 500 | COCCN(CCOC)c1nc(N2CCc3cc(OC)c(OC)cc3C2)c2nc(N(CCOC)CCOC)nc(N3CCc4cc(OC)c(OC)cc4C3)c2n1 [Compound 4, 4,8-bis(6,7-dimethoxy-3,4-dihydroisoquinolin-2(1H)-yl)-N2,N2,N6,N6-tetrakis(2-methoxyethyl)pyrimido[5,4-d]pyrimidine-2,6-diamine] |
| < 100 | COCCN(CCOC)c1nc(N2CCn3ncnc3C2)c2nc(N(CCOC)CCOC)nc(N3CCN(C)C(=O)C3)c2n1 [Compound 5, 4-(2,6-bis(bis(2-methoxyethyl)amino)-8-(5,6-dihydro-[1,2,4]triazolo[1,5-a]pyrazin-7(8H)-yl)pyrimido[5,4-d]pyrimidin-4-yl)-1-methylpiperazin-2-one] |
| 100 to 500 | COCCN(CCOC)c1nc(N2CCn3ncnc3C2)c2nc(N(CCOC)CCOC)nc(N3CCS(=O)(=O)CC3)c2n1 [Compound 6, 4-(2,6-bis(bis(2-methoxyethyl)amino)-8-(5,6-dihydro-[1,2,4]triazolo[1,5-a]pyrazin-7(8H)-yl)pyrimido[5,4-d]pyrimidin-4-yl)thiomorpholine 1,1-dioxide] |
| < 100 | COCCN(CCOC)c1nc(N2CCS(=O)(=O)CC2)c2nc(N(CCOC)CCOC)nc(NCc3ccccc3)c2n1 [Compound 7] |
| < 100 | CCCN(C)c1nc(N(CCOC)CCOC)nc2c(N3CCS(=O)(=O)CC3)nc(N(CCOC)CCOC)nc12 [Compound 8, 4-(2,6-bis(bis(2-methoxyethyl)amino)-8-(methyl(propyl)amino)pyrimido[5,4-d]pyrimidin-4-yl)thiomorpholine 1,1-dioxide] |
| 100 to 500 | COCCN(CCOC)c1nc(N2CCn3ncnc3C2)c2nc(N(CCOC)CCOC)nc(N3CCn4ncnc4C3)c2n1 [Compound 9, 4,8-bis(5,6-dihydro-[1,2,4]triazolo[1,5-a]pyrazin-7(8H)-yl)-N2,N2,N6,N6-tetrakis(2-methoxyethyl)pyrimido[5,4-d]pyrimidine-2,6-diamine] |
| 100 to 500 | CCCN(C)c1nc(N(CCOC)CCOC)nc2c(N3CCn4ncnc4C3)nc(N(CCOC)CCOC)nc12 [Compound 10, 8-(5,6-dihydro-[1,2,4]triazolo[1,5-a]pyrazin-7(8H)-yl)-N2,N2,N6,N6-tetrakis(2-methoxyethyl)-N4-methyl-N4-propylpyrimido[5,4-d]pyrimidine-2,4,6-triamine] |
| < 100 | COCCN(CCOC)c1nc(N2CC(O)(C(F)(F)F)C2)c2nc(N(CCOC)CCOC)nc(N3CC(O)(C(F)(F)F)C3)c2n1 [Compound 11, 1,1′-(2,6-bis(bis(2-methoxyethyl)amino)pyrimido[5,4-d]pyrimidine-4,8-diyl)bis(3-(trifluoromethyl)azetidin-3-ol)] |
| < 100 | COCCN(CCOC)c1nc(N2CC(O)(C(F)(F)F)C2)c2nc(N(CCOC)CCOC)nc(NCc3ccccc3)c2n1 [Compound 12, 1-(8-(benzylamino)-2,6-bis(bis(2-methoxyethyl)amino)pyrimido[5,4-d]pyrimidin-4-yl)-3-(trifluoromethyl)azetidin-3-ol] |
| < 100 | CCCN(C)c1nc(N(CCOC)CCOC)nc2c(N3CC(O)(C(F)(F)F)C3)nc(N(CCOC)CCOC)nc12 [Compound 13, 1-(2,6-bis(bis(2-methoxyethyl)amino)-8-(methyl(propyl)amino)pyrimido[5,4-d]pyrimidin-4-yl)-3-(trifluoromethyl)azetidin-3-ol] |
| 500 to 1000 | CCOC(=O)C1CCN(c2nc(N(CCOC)CCOC)nc3c(N4CCC(C(=O)OCC)CC4)nc(N(CCO)CCO)nc23)CC1 [Compound 14, diethyl 1,1′-(2-(bis(2-hydroxyethyl)amino)-6-(bis(2-methoxyethyl)amino)pyrimido[5,4-d]pyrimidine-4,8-diyl)bis(piperidine-4-carboxylate)] |
| < 100 | COC1CCN(c2nc(N(CCOC(C)=O)CCOC(C)=O)nc3c(N4CCC(OC)CC4)nc(N(CCOC(C)=O)CCOC(C)=O)nc23)CC1 [Compound 15, ((4,8-bis(4-methoxypiperidin-1-yl)pyrimido[5,4-d]pyrimidine-2,6-diyl)bis(azanetriyl))tetrakis(ethane-2,1-diyl)tetraacetate] |
| 500 to 1000 | COCCN(CCOC)c1nc(N2CCC(OC)CC2)c2nc(N(CCOC)CCOCCCN3CCN(C)CC3)nc(N3CCC(OC)CC3)c2n1 [Compound 16, N2,N2,N6-tris(2-methoxyethyl)-4,8-bis(4-methoxypiperidin-1-yl)-N6-(2-(3-(4-methylpiperazin-1-yl)propoxy)ethyl)pyrimido[5,4-d]pyrimidine-2,6-diamine] |
| 100 to 500 | COCCN(CCOC)c1nc(N2CCC(F)(F)CC2)c2nc(N(CCO)CCO)nc(N3CCC(F)(F)CC3)c2n1 [Compound 19, 2,2′-((6-(bis(2-methoxyethyl)amino)-4,8-bis(4,4-difluoropiperidin-1-yl)pyrimido[5,4-d]pyrimidin-2-yl)azanediyl)diethanol] |
| 500 to 1000 | COCCN(CCOC)c1nc(N2CCC(OC)CC2)c2nc(N3CCN(S(C)(=O)=O)CC3)nc(N3CCC(OC)CC3)c2n1 [Compound 30, N,N-bis(2-methoxyethyl)-4,8-bis(4-methoxypiperidin-1-yl)-6-(4-(methylsulfonyl)piperazin-1-yl)pyrimido[5,4-d]pyrimidin-2-amine] |
| 500 to 1000 | CCOC(=O)N1CCN(c2nc(N3CCC(OC)CC3)c3nc(N(CCOC)CCOC)nc(N4CCC(OC)CC4)c3n2)CC1 [Compound 31, ethyl 4-(6-(bis(2-methoxyethyl)amino)-4,8-bis(4-methoxypiperidin-1-yl)pyrimido[5,4-d]pyrimidin-2-yl)piperazine-1-carboxylate] |
| 500 to 1000 | COCCN(CCOC)c1nc(N2CCC(OC)CC2)c2nc(NCCn3cccn3)nc(N3CCC(OC)CC3)c2n1 [Compound 32, N2-(2-(1H-pyrazol-1-yl)ethyl)-N6,N6-bis(2-methoxyethyl)-4,8-bis(4-methoxypiperidin-1-yl)pyrimido[5,4-d]pyrimidine-2,6-diamine] |
| < 100 | COCCN(CCOC)c1nc(N2CCCC(F)(F)C2)c2nc(N(CCOC)CCOC)nc(N3CCCC(F)(F)C3)c2n1 [Compound 33, 4,8-bis(3,3-difluoropiperidin-1-yl)-N2,N2,N6,N6-tetrakis(2-methoxyethyl)pyrimido[5,4-d]pyrimidine-2,6-diamine] |
| 500 to 1000 | COCCN(CCO)c1nc(N2CCC(OC)CC2)c2nc(N(CCOC)CCOC)nc(N3CCC(OC)CC3)c2n1 [Compound 34, 2-((6-(bis(2-methoxyethyl)amino)-4,8-bis(4-methoxypiperidin-1-yl)pyrimido[5,4-d]pyrimidin-2-yl)(2-methoxyethyl)amino)ethanol] |
| 500 to 1000 | COCCN(CCOC)c1nc(N2CCS(=O)(=O)CC2)c2nc(N(CCOC)CCOC)nc(N3CCS(=O)(=O)CC3)c2n1 [Compound 37, 4,4′-(2,6-bis(bis(2-methoxyethyl)amino)pyrimido[5,4-d]pyrimidine-4,8-diyl)bis(thiomorpholine 1,1-dioxide)] |
| 100 to 500 | COCCN(CCOC)c1nc(N2CCN(c3nccs3)CC2)c2nc(N(CCO)CCO)nc(N3CCCCC3)c2n1 [Compound 38, 2,2′-((6-(bis(2-methoxyethyl)amino)-4-(piperidin-1-yl)-8-(4-(thiazol-2-yl)piperazin-1-yl)pyrimido[5,4-d]pyrimidin-2-yl)azanediyl)diethanol] |
| < 100 | COCCN(CCOC)c1nc(N2CCCCC2)c2nc(N(CCO)CCO)nc(N3CCN(c4nccs4)CC3)c2n1 [Compound 39, 2,2′-((6-(bis(2-methoxyethyl)amino)-8-(piperidin-1-yl)-4-(4-(thiazol-2-yl)piperazin-1-yl)pyrimido[5,4-d]pyrimidin-2-yl)azanediyl)diethanol] |
| 500 to 1000 | COCCN(CCOC)c1nc(N2CCC(OC)CC2)c2nc(N(CCOC)CCOCCCN3CCOCC3)nc(N3CCC(OC)CC3)c2n1 [Compound 44, N2,N2,N6-tris(2-methoxyethyl)-4,8-bis(4-methoxypiperidin-1-yl)-N6-(2-(3-morpholinopropoxy)ethyl)pyrimido[5,4-d]pyrimidine-2,6-diamine] |
| 100 to 500 | COCCN(CCOC)c1nc(N2CCC(OC)CC2)c2nc(N(CCOC)CCOCCN3CCOCC3)nc(N3CCC(OC)CC3)c2n1 [Compound 45, N2,N2,N6-tris(2-methoxyethyl)-4,8-bis(4-methoxypiperidin-1-yl)-N6-(2-(2-morpholinoethoxy)ethyl)pyrimido[5,4-d]pyrimidine-2,6-diamine] |

From patent US20230146675A1, “PYRIMIDO[5,4-d]PYRIMIDINE DERIVATIVES AS ENT INHIBITORS FOR THE TREATMENT OF CANCERS, AND COMBINATION THEREOF WITH ADENOSINE RECEPTOR ANTAGONISTS” (ITEOS BELGIUM SA, priority 2020, published 2023)
